Experimental data published in ChEMBL document CHEMBL2021774, “Rapid development of piperidine carboxamides as potent and selective anaplastic lymphoma kinase inhibitors” (J Med Chem, 2012).
pIC50: −log10 of the molar value.

Experiments:
[1] = target: Insulin-like growth factor 1 receptor (Homo sapiens, UniProt P08069)
[2] = target: T1, ALK tyrosine kinase receptor (Homo sapiens, UniProt Q9UM73)
[3] = target: T1, ALK tyrosine kinase receptor; remark: listed apart in the source
Description: Inhibition of ALK phosphorylation in human Karpas-299 cells after 1 hr

Insulin-like growth factor 1 receptor, sequence (P08069 31-736 limits assumed): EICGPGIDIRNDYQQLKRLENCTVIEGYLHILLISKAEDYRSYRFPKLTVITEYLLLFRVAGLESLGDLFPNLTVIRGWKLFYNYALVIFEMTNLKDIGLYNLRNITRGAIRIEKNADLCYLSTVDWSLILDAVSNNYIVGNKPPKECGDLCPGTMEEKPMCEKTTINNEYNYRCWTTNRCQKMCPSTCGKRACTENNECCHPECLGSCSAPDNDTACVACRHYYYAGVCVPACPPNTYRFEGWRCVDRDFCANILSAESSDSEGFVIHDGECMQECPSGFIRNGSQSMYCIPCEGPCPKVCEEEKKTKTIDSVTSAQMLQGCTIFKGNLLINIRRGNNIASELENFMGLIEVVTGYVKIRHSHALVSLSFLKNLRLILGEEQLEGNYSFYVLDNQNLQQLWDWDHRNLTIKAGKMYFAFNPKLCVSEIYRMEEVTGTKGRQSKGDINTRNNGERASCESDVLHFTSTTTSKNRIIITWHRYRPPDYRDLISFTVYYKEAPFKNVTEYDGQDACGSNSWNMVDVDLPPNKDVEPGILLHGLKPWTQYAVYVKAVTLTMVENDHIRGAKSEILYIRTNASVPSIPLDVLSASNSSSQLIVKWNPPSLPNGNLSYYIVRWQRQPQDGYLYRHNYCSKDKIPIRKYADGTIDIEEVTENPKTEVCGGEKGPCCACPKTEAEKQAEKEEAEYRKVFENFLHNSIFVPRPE
Insulin-like growth factor 1 receptor, sequence (P08069 741-1367 limits assumed): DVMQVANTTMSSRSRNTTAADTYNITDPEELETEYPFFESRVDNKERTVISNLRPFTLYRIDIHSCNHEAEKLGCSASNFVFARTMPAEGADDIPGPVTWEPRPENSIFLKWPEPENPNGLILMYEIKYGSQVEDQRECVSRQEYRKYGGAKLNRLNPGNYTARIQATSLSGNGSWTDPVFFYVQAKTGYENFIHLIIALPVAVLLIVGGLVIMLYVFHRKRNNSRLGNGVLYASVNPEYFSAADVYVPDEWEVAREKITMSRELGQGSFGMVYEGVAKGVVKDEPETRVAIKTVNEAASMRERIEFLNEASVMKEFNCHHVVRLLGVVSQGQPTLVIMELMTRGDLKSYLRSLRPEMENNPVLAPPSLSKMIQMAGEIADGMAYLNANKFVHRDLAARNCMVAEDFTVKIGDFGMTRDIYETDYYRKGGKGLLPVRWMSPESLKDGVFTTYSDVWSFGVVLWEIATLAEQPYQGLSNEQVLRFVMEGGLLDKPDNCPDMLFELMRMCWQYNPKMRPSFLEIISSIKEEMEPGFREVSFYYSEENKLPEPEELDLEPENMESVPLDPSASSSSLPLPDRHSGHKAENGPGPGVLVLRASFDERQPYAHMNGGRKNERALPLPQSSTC
T1 sequence (Q9UM73 whole entry): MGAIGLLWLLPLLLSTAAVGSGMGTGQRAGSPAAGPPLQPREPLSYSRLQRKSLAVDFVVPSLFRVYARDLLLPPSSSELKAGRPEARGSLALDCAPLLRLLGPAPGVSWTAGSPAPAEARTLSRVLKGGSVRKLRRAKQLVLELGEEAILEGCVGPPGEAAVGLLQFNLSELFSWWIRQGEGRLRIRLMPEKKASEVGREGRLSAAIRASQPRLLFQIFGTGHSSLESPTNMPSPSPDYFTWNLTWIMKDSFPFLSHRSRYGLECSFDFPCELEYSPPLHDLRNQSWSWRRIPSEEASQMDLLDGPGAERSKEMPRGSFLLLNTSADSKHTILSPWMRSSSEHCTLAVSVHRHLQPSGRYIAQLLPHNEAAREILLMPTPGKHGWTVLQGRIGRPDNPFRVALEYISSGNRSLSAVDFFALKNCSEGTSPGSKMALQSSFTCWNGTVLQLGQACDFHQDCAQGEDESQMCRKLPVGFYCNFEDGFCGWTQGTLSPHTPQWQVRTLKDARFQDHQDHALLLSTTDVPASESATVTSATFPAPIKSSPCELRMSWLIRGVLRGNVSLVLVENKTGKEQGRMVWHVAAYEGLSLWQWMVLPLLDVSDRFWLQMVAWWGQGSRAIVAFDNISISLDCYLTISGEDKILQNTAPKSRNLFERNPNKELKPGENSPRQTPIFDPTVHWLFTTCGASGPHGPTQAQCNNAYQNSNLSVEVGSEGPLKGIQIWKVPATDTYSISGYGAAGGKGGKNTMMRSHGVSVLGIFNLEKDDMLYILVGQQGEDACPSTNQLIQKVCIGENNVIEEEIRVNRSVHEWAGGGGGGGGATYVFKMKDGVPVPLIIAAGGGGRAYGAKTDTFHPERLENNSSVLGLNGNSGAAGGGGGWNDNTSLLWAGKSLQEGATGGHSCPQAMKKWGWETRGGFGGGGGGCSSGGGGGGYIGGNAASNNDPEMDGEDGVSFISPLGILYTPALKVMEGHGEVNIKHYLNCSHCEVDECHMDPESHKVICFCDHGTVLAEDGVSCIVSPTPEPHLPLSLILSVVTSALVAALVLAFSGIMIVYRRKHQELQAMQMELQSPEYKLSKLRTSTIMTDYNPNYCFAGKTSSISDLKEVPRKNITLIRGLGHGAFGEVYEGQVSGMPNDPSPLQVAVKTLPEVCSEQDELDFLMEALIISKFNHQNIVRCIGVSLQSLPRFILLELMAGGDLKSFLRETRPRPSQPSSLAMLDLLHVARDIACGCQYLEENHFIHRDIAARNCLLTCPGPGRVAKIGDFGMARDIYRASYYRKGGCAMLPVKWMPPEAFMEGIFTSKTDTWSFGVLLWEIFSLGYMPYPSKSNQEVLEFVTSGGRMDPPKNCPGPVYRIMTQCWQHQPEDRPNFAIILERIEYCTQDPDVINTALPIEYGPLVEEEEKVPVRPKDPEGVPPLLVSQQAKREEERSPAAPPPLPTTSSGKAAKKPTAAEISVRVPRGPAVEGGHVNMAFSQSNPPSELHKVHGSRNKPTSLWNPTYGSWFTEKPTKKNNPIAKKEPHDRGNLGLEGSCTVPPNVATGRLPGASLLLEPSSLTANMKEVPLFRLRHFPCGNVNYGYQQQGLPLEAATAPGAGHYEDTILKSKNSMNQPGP

## COc1cc(Nc2nccc(N3CCC[C@H](C(=O)NCc4ccc(C)cc4)C3)n2)cc(OC)c1OC
[1]
  pIC50: 5.34

## CNc1nccc(N2CCC[C@H](C(=O)NCc3ccc(C)cc3)C2)n1
[2]
  pIC50: < 4.60
[1]
  pIC50: < 4.60

## Cc1ccc(CNC(=O)[C@H]2CCCN(c3ccnc(Nc4ccccc4)n3)C2)cc1
[1]
  pIC50: < 4.60

## Cc1ccc(CNC(=O)[C@H]2CCCN(c3ccnc(NCc4ccccc4)n3)C2)cc1
[2]
  pIC50: < 4.60
[1]
  pIC50: < 4.60

## Cc1ccc(CNC(=O)[C@H]2CCCN(c3ccnc(Nc4cccc(Cl)c4)n3)C2)cc1
[1]
  pIC50: < 4.60

## Cc1ccc(CNC(=O)[C@H]2CCCN(c3ccnc(Nc4ccc(Cl)cc4)n3)C2)cc1
[2]
  pIC50: 5.20
[1]
  pIC50: < 4.60

## COc1ccc(Nc2nccc(N3CCC[C@H](C(=O)NCc4ccc(C)cc4)C3)n2)cc1
[1]
  pIC50: < 4.60

## CCc1cccc(Nc2nccc(N3CCC[C@H](C(=O)NCc4ccc(C)cc4)C3)n2)c1
[1]
  pIC50: < 4.60

## CCc1ccc(Nc2nccc(N3CCC[C@H](C(=O)NCc4ccc(C)cc4)C3)n2)cc1
[1]
  pIC50: < 4.60

## COc1ccc(Nc2nccc(N3CCC[C@H](C(=O)NCc4ccc(C)cc4)C3)n2)cc1OC
[1]
  pIC50: < 4.60

## Cc1ccc(CNC(=O)[C@H]2CCCN(c3ccnc(Nc4ccc5c(c4)OCCO5)n3)C2)cc1
[1]
  pIC50: < 4.60

## COc1cc(Nc2nccc(N3CCC[C@H](C(=O)NCCc4ccccc4)C3)n2)cc(OC)c1OC
[1]
  pIC50: < 4.60

## COc1cc(Nc2nccc(N3CCC[C@H](C(=O)NCCCc4ccccc4)C3)n2)cc(OC)c1OC
[2]
  pIC50: 5.17

## COc1cc(Nc2nccc(N3CCC[C@H](C(=O)NCc4ccc([N+](=O)[O-])cc4)C3)n2)cc(OC)c1OC
[2]
  pIC50: 5.53
[1]
  pIC50: < 4.60

## COC(=O)c1ccc(CNC(=O)[C@H]2CCCN(c3ccnc(Nc4cc(OC)c(OC)c(OC)c4)n3)C2)cc1
[1]
  pIC50: < 4.60

## COc1cc(Nc2nccc(N3CCC[C@H](C(=O)NCc4ccc(-c5ccccc5)cc4)C3)n2)cc(OC)c1OC
[1]
  pIC50: < 4.60

## COc1cc(Nc2nccc(N3CCC[C@H](C(=O)NCc4cccc(N5CCOCC5)c4)C3)n2)cc(OC)c1OC
[3]
  pIC50: 7.55
[2]
  pIC50: 7.51

## COc1cc(Nc2nccc(N3CCC[C@@H](C(=O)NCc4ccc(C)cc4)C3)n2)cc(OC)c1OC
[1]
  pIC50: < 4.60
